Like-named read-outs stand apart in the source and are kept apart here.
Tests used:
[1] = Stability of aqueous formulation on shelf storage / accelerated storage; format: physicochemical
[2] = Particulate matter in aqueous solution (USP requirements); format: physicochemical; details: aqueous solution of ganciclovir base at about or below about 3 mg/ml
Excerpt: As used herein, the term “particulate-matter-free” or its grammatical equivalents such as “particle free” refer to the state in which the composition of the present invention meets the USP requirements for particulate matter in parenteral solutions. See for example, USP XXXII, Chapter 788. One of skill in the art understands and knows how to assess whether a given composition meets USP particulate matter requirements.

[3] = cited from earlier work
[4] = cited from earlier work; remark: listed apart in the source

Row | SMILES | retained initial concentration of ganciclovir ([1]; aqueous solution at about or below about 3 mg/ml, accelerated storage or stability testing conditions) | stability for extended shelf-storage ([1]; aqueous solution of ganciclovir base at concentrations of about or below about 3 mg/ml) | particulate matter [2] | solubility in water [3] | stability in an aqueous formulation (prolonged shelf-storage) [4] | solubility in water ([3]; listed as Ganciclovir sodium salt)
1 | Nc1nc2c(ncn2COC(CO)CO)c(=O)[nH]1 [ganciclovir base, 9-(1,3-dihydroxy-2-propoxymethyl)guanine] | at least 95% | stable for extended shelf-storage | free or substantially free of particulate matter | limited solubility in water | – | –
2 | Nc1nc(O)c2ncn(COC(CO)CO)c2n1 [ganciclovir sodium] | – | – | – | – | not sufficiently stable | very soluble in water

Reference: US20250319189A1, “GANCICLOVIR COMPOSITIONS AND RELATED METHODS” (Exela Pharma Sciences, LLC, priority 2013, published 2025)
